In PubChem BioAssay AID449750 (Broad Institute, 2010):
Calls of active or inactive are those of the source. How the calls were made is not given here.

Assay: non-covalent RecA intein splicing inhibitors, dose response, biochemical, cell-free, fluorescence, secondary screen (AID 449750)

| Compound | AC50 |
| --- | --- |
| C#CC(=O)N(c1cc(OC)ccc1OC)C(C(=O)NC1CCCC1)c1cccs1 (configuration not stated) | 2.35 µM |
| S=C1Cc2ccccc2N1 | 3.46 µM |
| O=S(=O)(c1ccccc1)c1ncc(C(F)(F)F)cc1Cl | > 38 µM (inactive) |
| Cc1ccc(C(=O)NC2(O)C(=O)c3ccccc3C2=O)cc1C | 6.09 µM |
| Cc1nn(-c2ccccc2)c(Cl)c1CN(C(=O)CCl)c1ccc(Cl)cc1 | 1.28 µM |
| Clc1ccc(Sc2oc(/C=N/n3cnnc3)cc2Br)cc1 | > 38 µM (inactive) |
| c1ccc(CCNCc2cccs2)cc1 | > 38 µM (inactive) |
| O=C(O)CN1C(=O)/C(=C\c2ccc(OC(=O)c3ccco3)cc2)SC1=S | > 38 µM (inactive) |
| COc1ccc(CN2CCNC(=O)C2CC(=O)N(C)Cc2ccncn2)c(OC)c1 (configuration not stated) | > 38 µM (inactive) |
| CCCC(=O)OCCNc1cc(Sc2nccn2C)c2nonc2c1[N+](=O)[O-] | > 38 µM (inactive) |
| O=c1cc(-c2ccc(Cl)c(Cl)c2)[nH][nH]1 | 8.07 µM |
| CC(=O)c1c(Cl)nc2cccc3c2c1-c1ccccc1C3=O | > 38 µM (inactive) |
| Oc1c(C=NCc2ccc(F)cc2)[nH]c2ccc(Br)c(Cl)c12 | 30.8 µM |
| CCCCCCOC(=O)c1ccc(OC(=O)c2cccnc2)cc1 | > 38 µM (inactive) |
| Fc1ccc(Sc2nc(-c3ccccc3)nnc2C(F)(F)F)cc1 | > 38 µM (inactive) |
| Cc1ccc(C2C(C#N)=C(N)Oc3n[nH]c(-c4cccs4)c32)s1 (configuration not stated) | 3.32 µM |
| Cc1ccc(S(=O)(=O)NCC2CCC(C(=O)NCCCN3CCOCC3)CC2)cc1 (configuration not stated) | > 38 µM (inactive) |
| CS(=O)(=O)c1ncc(Cl)c(C(=O)Nc2ccc(N3CCOCC3)cc2)n1 | > 38 µM (inactive) |
| CC1=C(CC(=O)c2ccc(Cl)cc2)C(=O)c2ccccc2C1=O | 16.3 µM |
| CCOc1ccc(N2C(=O)/C(=C\c3ccc(O)c(OC)c3)S(=O)(=O)C2c2cccc([N+](=O)[O-])c2)cc1 (configuration not stated) | > 38 µM (inactive) |
| O=C1CS/C(=C\[N+](=O)[O-])N1c1ccc(OC(F)(F)F)cc1 | > 38 µM (inactive) |

| Compound | AC50 |
| --- | --- |
| Oc1ccc(O)c2c1C1c3ccccc3C2c2ccccc21 | 38.4 µM |
| Cc1nn(-c2ccccc2)c2c1C(c1cccs1)C(C#N)=C(N)O2 (configuration not stated) | 18.3 µM |
| COc1ccccc1NC1=C(Cl)C(=O)OC1OC(=O)c1ccco1 (configuration not stated) | > 38 µM (inactive) |
| COc1ccc(OC)c(N2C(=O)C(Cl)=C(N3CCCCC3)C2=O)c1 | > 38 µM (inactive) |
| Cc1ccc(NC(=O)CSc2ncnc3ccccc23)cc1S(=O)(=O)N1CCCCCC1 | 30.2 µM |
| CN(N)C(=S)Nc1ccc(Cl)cc1 | > 38 µM (inactive) |
| Cc1cccn2c(CNCC3(c4ccccc4)CCCC3)c(C(=O)N3CCOCC3)nc12 | > 38 µM (inactive) |
| CC1(C)Cc2ccccc2C2=NNC(=O)C2=N1 | 11 µM |
| CCOc1cc(/C=C2\C(=N)N3N=C(S(=O)(=O)CC)SC3=NC2=O)ccc1OC(=O)c1ccco1 | > 38 µM (inactive) |
| O=c1cc(N=Nc2ccc(Cl)cc2)[nH]c(=O)[nH]1 | > 38 µM (inactive) |
| CCOC(=O)c1ccc(NC2=CC(=O)C(=O)c3ccccc32)cc1 | > 38 µM (inactive) |
| CC(C)S(=O)(=O)C1=NSC2=NC(=O)/C(=C\c3ccc(OC(=O)c4ccco4)cc3)C(=N)N21 | 30.6 µM |
| COc1cccc(C(=O)Nc2nc(SCc3ccc(Cl)cc3)n[nH]2)c1 | > 38 µM (inactive) |
| O=C(CCl)N(c1ccc(Cl)cc1)c1c[nH]c2ccccc12 | 0.746 µM |
| CC1=C(C(=O)OC(C)C)C2(O)C(=O)c3ccccc3C2(O)N1 (configuration not stated) | 9.7 µM |
| CC1(C)CC(C(CCN(Cc2ccccc2)C(=O)c2ccco2)c2ccc(F)cc2)CCO1 (configuration not stated) | 5.14 µM |
| COc1ccc(/C=C2/C(=O)N(c3ccccc3)N=C2C)cc1Br | 5.66 µM |
| N=c1c2c(-c3ccccc3)c(-c3ccccc3)n(Cc3ccco3)c2ncn1Cc1ccccc1 | 5.8 µM |
| Cc1nnc(N/N=C\c2ccc(-c3ccccc3[N+](=O)[O-])o2)n1N | > 38 µM (inactive) |
| O=C1C(Nc2ccccc2)=C/C(=N/S(=O)(=O)c2cccs2)c2ccccc21 | 0.226 µM |
| O=C(CCl)NC(=O)NC12CC3CC(CC(C3)C1)C2 | 13.3 µM |
